Laboratory results published in ChEMBL document CHEMBL1158657, “Improved antitumor activity by modification of nogalamycin” (1979).
Values after ≈ are worked out from the molar mass of the structure shown. Active and inactive are the calls of the source. The rule behind the calls is not given here.

Legend:
Type in all cases: functional
P388 [1] = experiment: Antitumor activity against mouse P388 cells xenografted in mouse assessed as increase in life span at 1 mg/kg/day, iv after 9 days
B16 [2] = experiment: Antitumor activity against mouse B16 cells xenografted in mouse assessed as increase in life span at 1 mg/kg/day, ip after 9 days; details: route intraperitoneal
L1210 [3] = experiment: Antitumor activity against mouse L1210 cells xenografted in mouse assessed as increase in life span at 0.5 mg/kg/day, ip after 9 days; details: route intraperitoneal
P388 [4] = experiment: Antitumor activity against mouse P388 cells xenografted in mouse assessed as increase in life span at 0.5 mg/kg/day, iv after 9 days
L1210 [5] = experiment: Antitumor activity against mouse L1210 cells xenografted in mouse assessed as increase in life span at 1 mg/kg/day, ip after 9 days; details: route intraperitoneal
B16 [6] = experiment: Antitumor activity against mouse B16 cells xenografted in mouse assessed as increase in life span at 0.25 mg/kg/day, ip after 9 days; details: route intraperitoneal
P388 [7] = experiment: Antitumor activity against mouse P388 cells xenografted in mouse assessed as increase in life span at 2 mg/kg/day, ip after 9 days; details: route intraperitoneal
P388 [8] = experiment: Antitumor activity against mouse P388 cells xenografted in mouse assessed as increase in life span at 0.25 mg/kg/day, ip after 9 days; details: route intraperitoneal
P388 [9] = experiment: Antitumor activity against mouse P388 cells xenografted in mouse assessed as increase in life span at 2 mg/kg/day, iv after 9 days
P388 [10] = experiment: Antitumor activity against mouse P388 cells xenografted in mouse assessed as increase in life span at 0.5 mg/kg/day, ip after 9 days; details: route intraperitoneal
L1210 [11] = experiment: Antitumor activity against mouse L1210 cells xenografted in mouse assessed as increase in life span at 0.25 mg/kg/day, ip after 9 days; details: route intraperitoneal
B16 [12] = experiment: Antitumor activity against mouse B16 cells xenografted in mouse assessed as increase in life span at 0.5 mg/kg/day, ip after 9 days; details: route intraperitoneal
L1210 [13] = experiment: Antitumor activity against mouse L1210 cells xenografted in mouse assessed as increase in life span at 2 mg/kg/day, ip after 9 days; details: route intraperitoneal
P388 [14] = experiment: Antitumor activity against mouse P388 cells xenografted in mouse assessed as increase in life span at 1 mg/kg/day, ip after 9 days; details: route intraperitoneal
P388 [15] = experiment: Antitumor activity against mouse P388 cells xenografted in mouse assessed as increase in life span at 12.5 mg/kg/day, po after 9 days
P388 [16] = experiment: Antitumor activity against mouse P388 cells xenografted in mouse assessed as increase in life span at 0.25 mg/kg/day, iv after 9 days
B16 [17] = experiment: Antitumor activity against mouse B16 cells xenografted in mouse assessed as increase in life span at 2 mg/kg/day, ip after 9 days; details: route intraperitoneal
[18] = Antitumor activity against mouse CD8F1 cells xenografted in mouse assessed as increase in life span at 25 mg/kg, sc Q7D after 5 days; details: route subcutaneous
P388 [19] = experiment: Antitumor activity against mouse P388 cells xenografted in mouse assessed as increase in life span at 6.25 mg/kg/day, ip after 9 days; details: route intraperitoneal
P388 [20] = experiment: Antitumor activity against mouse P388 cells xenografted in mouse assessed as increase in life span at 12.5 mg/kg/day, ip after 9 days; details: route intraperitoneal
L1210 [21] = experiment: Antitumor activity against mouse L1210 cells xenografted in mouse assessed as increase in life span at 12.5 mg/kg/day, ip after 9 days; details: route intraperitoneal
L1210 [22] = experiment: Inhibition of DNA synthesis in mouse L1210 cells; details: read-out: ID50 (the source's name)
L1210 [23] = experiment: Cytotoxicity against mouse L1210 cells; details: Mus musculus, L1210, read-out: ID50
B16 [24] = experiment: Antitumor activity against mouse B16 cells xenografted in mouse assessed as increase in life span at 20 mg/kg/day, ip after 9 days; details: route intraperitoneal
B16 [25] = experiment: Antitumor activity against mouse B16 cells xenografted in mouse assessed as increase in life span at 10 mg/kg/day, ip after 9 days; details: route intraperitoneal
Colon 26 = experiment: Antitumor activity against mouse Colon 26 cells xenografted in mouse assessed as increase in life span at 25 mg/kg, ip Q4D after 2 days; details: route intraperitoneal
P388 [26] = experiment: Antitumor activity against mouse P388 cells xenografted in mouse assessed as increase in life span at 3.13 mg/kg/day, ip after 9 days; details: route intraperitoneal
B16 [27] = experiment: Antitumor activity against mouse B16 cells xenografted in mouse assessed as increase in life span at 12.5 mg/kg/day, ip after 9 days; details: route intraperitoneal
B16 [28] = experiment: Antitumor activity against mouse B16 cells xenografted in mouse assessed as increase in life span at 2.5 mg/kg/day, ip after 9 days; details: route intraperitoneal
MC-38 = experiment: Antitumor activity against mouse Colon 38 cells xenografted in mouse assessed as increase in life span at 25 mg/kg, sc Q7D after 2 days; details: route subcutaneous
L1210 [29] = experiment: Antitumor activity against mouse L1210 cells xenografted in mouse assessed as increase in life span at 3.13 mg/kg/day, ip after 9 days; details: route intraperitoneal
L1210 [30] = experiment: Inhibition of RNA synthesis in mouse L1210 cells at 10 nmole/ml
P388 [31] = experiment: Antitumor activity against mouse P388 cells xenografted in mouse assessed as increase in life span at 6.25 mg/kg/day, iv after 9 days
B16 [32] = experiment: Antitumor activity against mouse B16 cells xenografted in mouse assessed as increase in life span at 6 to 12 mg/kg/day, ip after 9 days; details: route intraperitoneal
[33] = tested on: Lewis lung carcinoma cell line; experiment: Antitumor activity against mouse LLC cells xenografted in mouse assessed as increase in life span at 12.5 mg/kg/day, ip after 9 days; details: route intraperitoneal
B16 [34] = experiment: Antitumor activity against mouse B16 cells xenografted in mouse assessed as increase in life span at 5 mg/kg/day, ip after 9 days; details: route intraperitoneal
L1210 [35] = experiment: Inhibition of RNA synthesis in mouse L1210 cells; details: read-out: ID50 (the source's name)
P388 [36] = experiment: Antitumor activity against mouse P388 cells xenografted in mouse assessed as increase in life span at 3.13 mg/kg/day, iv after 9 days
P388 [37] = experiment: Antitumor activity against mouse P388 cells xenografted in mouse assessed as increase in life span at 12.5 mg/kg/day, iv after 9 days
L1210 [38] = experiment: Antitumor activity against mouse L1210 cells xenografted in mouse assessed as increase in life span at 6.25 mg/kg/day, ip after 9 days; details: route intraperitoneal

For COc1cccc2c1C(=O)c1c(O)c3c(c(O)c1C2=O)C[C@@](O)(C(=O)CO)C[C@@H]3O[C@H]1C[C@H](N)[C@H](O)[C@H](C)O1 [DOXORUBICIN], the Activity (P388 [1]) was 10%, the Activity (B16 [2]) was 166% and the Activity (L1210 [3]) was 29%. It also gave an Activity (P388 [4]) of 3%, an Activity (L1210 [5]) of 38% and an Activity (B16 [6]) of 127%. It also gave an Activity (P388 [7]) of 7%, an Activity (P388 [8]) of 61% and an Activity (P388 [9]) of 29%. The Activity (P388 [10]) was 137%, the Activity (L1210 [11]) was 20% and the Activity (B16 [12]) was 160%. The Activity (L1210 [13]) was 40%, the Activity (P388 [14]) was 158% and the Activity (P388 [15]) was “inactive”. The Activity (P388 [16]) was 8% and the Activity (B16 [17]) was 158%.

In the case of CO[C@H]1C[C@@](C)(O)Cc2cc3c(c(O)c21)C(=O)c1c(O)cc2c(c1C3=O)O[C@@H]1O[C@@]2(C)[C@H](O)[C@@H](N(C)C)[C@@H]1O, the Activity [18] is reported as 1%, the Activity (P388 [19]) is reported as 111% and the Activity (P388 [20]) is reported as 197%. It also gave an Activity (L1210 [21]) of 140%, an IC50 (L1210 [22]) greater than 46 µM and an IC50 (L1210 [23]) of 0.061 mg/L (≈ 0.113 µM). The Activity (B16 [24]) was -9%, the Activity (B16 [25]) was 114% and the Activity (Colon 26) was 106%. For the same compound, the Activity (P388 [26]) was 61%, the Activity (B16 [27]) was 109% and the Activity (B16 [28]) was 64%. The Activity (MC-38) was 21%, the Activity (L1210 [29]) was 42% and the “inhibition (INH)” value (L1210 [30]) was 0%. It also gave an Activity (P388 [31]) of 53%, an Activity (B16 [32]) of 77% and an Activity [33] of 38%. It also gave an Activity (B16 [34]) of 88%, an IC50 (L1210 [35]) greater than 46 µM and an Activity (P388 [36]) of 25%. It also gave an Activity (P388 [15]) of 48%, an Activity (P388 [37]) of 187% and an Activity (L1210 [38]) of 55%.
